Results published in patent publication US20220323356A1, “METAL (HYDR)OXIDE COMPOSITE COMPRISING POORLY SOLUBLE DRUG, METHOD FOR PREPARING SAME, AND PHARMACEUTICAL COMPOSITION COMPRISING SAME” (priority 2020, published 2022).

Key:
[1] = in vivo; cited from earlier work
[2] = In-vivo pharmacokinetic analysis of calcined metal (hydr)oxide-docetaxel compositions, single oral administration; details: rat, 40 mg/kg

CC(=O)O[C@@]12CO[C@@H]1C[C@H](O)[C@@]1(C)C(=O)[C@H](O)C3=C(C)[C@@H](OC(=O)[C@H](O)[C@@H](NC(=O)OC(C)(C)C)c4ccccc4)C[C@@](O)([C@@H](OC(=O)c4ccccc4)[C@H]21)C3(C)C [Docetaxel]
bioavailability (%) [1]: 8% | AUC(0-t) [2]: 47.5 ng·h/mL | Tmax [2]: 0.5 h | half-life [2]: 9.41 h | Cmax ([2]; Cmax, Docetaxel PO 40 mg/kg, rats): 5.25 ng/mL
